The values below are quoted from earlier work in patent US9403784B1, “Fumarate compounds, pharmaceutical compositions thereof, and methods of use” (priority 2015, dated 2016).

Regarding `COC(=O)/C=C/C(=O)OC` [DMF, dimethylfumarate], the aqueous solubility entry was “poor aqueous solubility”.
